According to patent publication US5151417A, “3-substituted vinyl cephalosporin derivatives” (Eisai Co., Ltd., priority 1989, dated 1992):
Converted amounts (≈) assume the structure as drawn. Read-outs that look alike come from different tables or passages of the source.

Experiments:
Assay type in all cases: cell-based
[1] = test system: Klebsiella pneumoniae EK-6; assay: In vitro antibacterial activity, Klebsiella pneumoniae EK-6 (Tables 2-6)
Procedure: (§1) Typical compounds out of the compounds described in Examples were classified into some groups. On each compound group, in vitro antibacterial activities were tested by a method known per se in the art.

[2] = test system: Staphylococcus aureus 209-P; assay: In vitro antibacterial activity, Staphylococcus aureus 209-P (Tables 2-6)
Procedure: as §1

Escherichia coli NIHJ = assay: In vitro antibacterial activity, Escherichia coli NIHJ (Tables 2-6)
Procedure: as §1

[3] = test system: Serratia marcescens ES-75; assay: In vitro antibacterial activity, Serratia marcescens ES-75 (Tables 2-6)
Procedure: as §1

[4] = test system: Morganella morganii EP-14; assay: In vitro antibacterial activity, Morganella morganii EP-14 (Tables 2-6)
Procedure: as §1

[5] = Klebsiella pneumoniae, EK6, Klebsiella pneumoniae EK-6, read-out: MIC
[6] = Staphylococcus aureus, 209P, Staphylococcus aureus 209-P, read-out: MIC
[7] = Escherichia coli, Escherichia coli NIHJ, read-out: MIC
[8] = Serratia marcescens, ES75, Serratia marcescens ES-75, read-out: MIC
[9] = Morganella morganii, EP14, Morganella morganii EP-14, read-out: MIC

Row | MIC [1, 5] [µg/mL] | MIC [2, 6] [µg/mL] | SMILES | MIC ([1]; Klebsiella pneumoniae, EK6) [µg/mL] | MIC ([2]; Staphylococcus aureus, 209P) [µg/mL] | MIC (Escherichia coli NIHJ; Escherichia coli) [µg/mL] | MIC ([3]; Serratia marcescens, ES75) [µg/mL] | MIC ([4]; Morganella morganii, EP14) [µg/mL] | further results
1 | 0.2 (≈ 0.417 µM) | 0.4 (≈ 0.834 µM) | CO/N=C(\C(=O)N[C@@H]1C(=O)N2C(C(=O)O)=C(/C=C/C3CCCO3)CS[C@H]12)c1csc(N)n1 (single isomer, unassigned) [48 A] |  |  |  |  |  | MIC (Escherichia coli NIHJ; [7]): 0.4 µg/mL (≈ 0.834 µM); MIC ([3]; Serratia marcescens ES-75): 0.025 µg/mL (≈ 0.0521 µM); MIC ([4]; Morganella morganii EP-14): 0.025 µg/mL (≈ 0.0521 µM)
2 |  |  | CO/N=C(\C(=O)N[C@@H]1C(=O)N2C(C(=O)O)=C(/C=C/C3CCCO3)CS[C@H]12)c1csc(N)n1 (single isomer, unassigned) [48 B] |  |  |  |  |  | MIC ([1]; Klebsiella pneumoniae EK-6): 0.4 µg/mL (≈ 0.834 µM); MIC ([2]; Staphylococcus aureus 209-P): 0.8 µg/mL (≈ 1.67 µM); MIC (Escherichia coli NIHJ; Escherichia coli NIHJ): 0.8 µg/mL (≈ 1.67 µM); MIC ([3]; Serratia marcescens ES-75): 0.1 µg/mL (≈ 0.209 µM); MIC ([4]; Morganella morganii EP-14): 0.2 µg/mL (≈ 0.417 µM)
3 | 0.2 (≈ 0.43 µM) | 0.1 (≈ 0.215 µM) | Nc1nc(/C(=N/O)C(=O)N[C@@H]2C(=O)N3C(C(=O)O)=C(/C=C/C4CCCO4)CS[C@H]23)cs1 (single isomer, unassigned) [50 A] |  |  |  |  |  | MIC (Escherichia coli NIHJ; Escherichia coli NIHJ): 0.2 µg/mL (≈ 0.43 µM); MIC ([3]; Serratia marcescens ES-75): 0.1 µg/mL (≈ 0.215 µM); MIC ([4]; Morganella morganii EP-14): 0.05 µg/mL (≈ 0.107 µM)
4 |  |  | Nc1nc(/C(=N/O)C(=O)N[C@@H]2C(=O)N3C(C(=O)O)=C(/C=C/C4CCCO4)CS[C@H]23)cs1 (single isomer, unassigned) [50 B] |  |  |  |  |  | MIC ([1]; Klebsiella pneumoniae EK-6): 0.4 µg/mL (≈ 0.859 µM); MIC ([2]; Staphylococcus aureus 209-P): 0.1 µg/mL (≈ 0.215 µM); MIC (Escherichia coli NIHJ; Escherichia coli NIHJ): 0.8 µg/mL (≈ 1.72 µM); MIC ([3]; Serratia marcescens ES-75): 0.4 µg/mL (≈ 0.859 µM); MIC ([4]; Morganella morganii EP-14): 0.2 µg/mL (≈ 0.43 µM)
5 | 0.2 (≈ 0.41 µM) | 0.8 (≈ 1.64 µM) | CO/N=C(\C(=O)N[C@@H]1C(=O)N2C(C(=O)O)=C(/C=C\c3cncnc3)CS[C@H]12)c1csc(N)n1 [Example 14] |  |  |  |  |  | MIC (Escherichia coli NIHJ; [7]): 0.4 µg/mL (≈ 0.82 µM); MIC [3, 8]: 0.8 µg/mL (≈ 1.64 µM); MIC [4, 9]: 0.05 µg/mL (≈ 0.103 µM)
6 |  |  | Nc1nc(/C(=N/O)C(=O)N[C@@H]2C(=O)N3C(C(=O)[O-])=C(/C=C\c4cncnc4)CS[C@H]23)cs1.[Na+] [Example 16, Sodium 7β-[(Z)-2-(2-aminothiazol-4-yl)-2-(hydroxyimino)acetamido]-3-[(Z)-2 (pyrimidin-5-yl)vinyl]-3-cephem-4-carboxylate] | 0.05 | 0.2 | 0.1 | > 100 | 0.012 | 
7 | 0.1 (≈ 0.205 µM) | 0.2 (≈ 0.41 µM) | Cc1ncc(/C=C\C2=C(C(=O)O)N3C(=O)[C@@H](NC(=O)/C(=N\O)c4csc(N)n4)[C@H]3SC2)cn1 [Example 21] |  |  |  |  |  | MIC (Escherichia coli NIHJ; [7]): 0.2 µg/mL (≈ 0.41 µM); MIC [3, 8]: 0.2 µg/mL (≈ 0.41 µM); MIC [4, 9]: 0.025 µg/mL (≈ 0.0513 µM)
8 |  |  | Nc1nc(/C(=N/O)C(=O)N[C@@H]2C(=O)N3C(C(=O)[O-])=C(/C=C/c4cncnc4N)CS[C@H]23)cs1.[Na+] [Example 23, Sodium 7β[(Z)-2-(2-aminothiazol-4-yl)-2-(hydroxyimino)acetamido]-3-[(E)-2-(4-aminopyrimidin-5-yl)vinyl]-3-cephem-4-carboxylate] | 0.025 | 0.2 | 0.4 | > 100 | 0.012 | 
9 |  |  | COc1ncncc1/C=C\C1=C(C(=O)[O-])N2C(=O)[C@@H](NC(=O)/C(=N\O)c3csc(N)n3)[C@H]2SC1.[Na+] [Example 25, Sodium 7β-[(Z)-2-(2-aminothiazol-4-yl)-2-(hydroxyimino)acetamido]-3-[(Z)-2-(4-methoxypyrimidin-5-yl)vinyl]-3-cephem-4-carboxylate] | 0.4 | 0.2 | 0.8 | 0.2 | 0.1 | 
10 |  |  | CO/N=C(\C(=O)N[C@@H]1C(=O)N2C(C(=O)[O-])=C(/C=C/c3cnccn3)CS[C@H]12)c1csc(N)n1.[Na+] [Example 27, Sodium 7β-[(Z)-2-(2-aminothiazol-4-yl)-2-(methoxyimino)acetamido]-3-[(E)-2-(pyrazin-2-yl)vinyl]-3-cephem-4-carboxylate] | 0.1 | 0.8 | 0.2 | 0.05 | 0.05 | 
11 |  |  | CO/N=C(\C(=O)N[C@@H]1C(=O)N2C(C(=O)O)=C(/C=C/c3c(Cl)ncnc3Cl)CS[C@H]12)c1csc(N)n1 [Example 29 (E)] |  |  |  |  |  | MIC [3, 8]: 6.25 µg/mL (≈ 11.2 µM); MIC [4, 9]: 0.4 µg/mL (≈ 0.719 µM)
12 |  |  | CO/N=C(\C(=O)N[C@@H]1C(=O)N2C(C(=O)[O-])=C(/C=C\c3c(Cl)ncnc3Cl)CS[C@H]12)c1csc(N)n1.[Na+] [Example 29 (Z), Sodium 7β-[(Z)-2-(2-aminothiazol-4-yl)-2-(methoxyimino)acetamido]-3-[(Z)-2-(4,6-dichloropyrimidin-5-yl)vinyl]-3-cephem-4-carboxylate] | 7.56 | 1.56 | 3.13 | 3.13 | 0.8 | 
13 |  |  | CN(C)C(=O)OC/C=C\C1=C(C(=O)[O-])N2C(=O)C(NC(=O)/C(=N\O)c3csc(N)n3)[C@H]2SC1.[Na+] (stereo partly drawn) [Example 30, Sodium 7-[(Z)-2-(2-aminothiazol-4-yl)-2-hydroxyiminoacetamido]-3-[(Z)-3-(N,N-dimethylcarbamoyloxy)-1-propenyl]-3-cephem-4-carboxylate] | 0.2 | 0.2 | 0.2 | 0.05 | 0.05 | 
14 | 0.1 | 0.2 | Nc1nc(/C(=N/O)C(=O)NC2C(=O)N3C(C(=O)O)=C(/C=C\COC(=O)N4CCOCC4)CSC23)cs1 (stereo not drawn) [Example 32, Sodium 7-[(Z)-2-(2-aminothiazol-4-yl)-2-hydroxyiminoacetamido]-3-[(Z)-3-(1-morphorinylcarbonyloxy)-1-propenyl]-3-cephem-4-carboxylate] |  |  |  |  |  | MIC (Escherichia coli NIHJ; [7]): 0.2 µg/mL
15 |  |  | CNC(=O)OC/C=C\C1=C(C(=O)[O-])N2C(=O)C(NC(=O)/C(=N\O)c3csc(N)n3)[C@H]2SC1.[Na+] (stereo partly drawn) [Example 33, Sodium 7-[(Z)-2-(2-aminothiazol-4-yl)-2-hydroxyiminoacetamido]-3-[(Z)-3-(N-methylcarbamoyloxy)-1-propenyl]-3-cephem-4-carboxylate] | 0.012 | 0.1 | 0.025 | 0.025 | ≤ 0.006 | 
16 | 0.05 (≈ 0.101 µM) | 0.8 (≈ 1.61 µM) | CNC(=O)OC/C=C\C1=C(C(=O)O)N2C(=O)C(NC(=O)/C(=N\OC)c3csc(N)n3)C2SC1 (stereo not drawn) [Example 38] |  |  |  |  |  | MIC (Escherichia coli NIHJ; [7]): 0.2 µg/mL (≈ 0.403 µM); MIC [3, 8]: 0.05 µg/mL (≈ 0.101 µM); MIC [4, 9]: 0.012 µg/mL (≈ 0.0242 µM)
17 |  |  | CC(C)NC(=O)OC/C=C\C1=C(C(=O)[O-])N2C(=O)C(NC(=O)/C(=N\O)c3csc(N)n3)[C@H]2SC1.[Na+] (stereo partly drawn) [Example 40, Sodium 7-[(Z)-2-(2-aminothiazol-4-yl)-2-hydroxyiminoacetamido]-3-[(Z)-3-(N-isopropylcarbamoyloxy)-1-propenyl]-3-cephem-4-carboxylate] | 0.1 | 0.2 | 0.1 | 0.05 | 0.025 | 
18 |  |  | CCNC(=O)OC/C=C\C1=C(C(=O)[O-])N2C(=O)C(NC(=O)/C(=N\O)c3csc(N)n3)[C@H]2SC1.[Na+] (stereo partly drawn) [Example 42, Sodium 7-[(Z)-2-(2-aminothiazol-4-yl)-2-hydroxyiminoacetamido]-3-[(Z)-3-(N-ethylcarbamoyloxy)-1-propenyl]-3-cephem-4-carboxylate] | 0.05 | 0.1 | 0.05 | 0.05 | ≤ 0.006 | 
19 |  |  | Nc1nc(/C(=N/O)C(=O)NC2C(=O)N3C(C(=O)[O-])=C(/C=C\COC(=O)NCCCl)CS[C@H]23)cs1.[Na+] (stereo partly drawn) [Example 44, Sodium 7-[(Z)-2-(2-aminothiazol-4-yl)-2-hydroxyiminoacetamido]-3-[(Z)-3-(N-(2-chloroethyl)carbamoyloxy)-1-propenyl]-3-cephem-4-carboxylate] | 0.05 | 0.1 | 0.05 | 0.05 | ≤ 0.006 | 
